Earlier results on two molecules are cited in US5883103A, “Oral acyclovir delivery” (priority 1995, dated 1999).

Each structure is given as a SMILES string.

For series [1], the system named is viral DNA polymerase.
The test system of series [2] is cellular α-DNA polymerase. The settings on record: compared with viral DNA polymerase.
In series [3] the test system is TK encoded by HSV, varicella zoster, and EBV.
Series [4] concerns herpes simplex types 2 (HSV-2).
Series [5] deals with uninfected normal cells.
Series [6] concerns varicella zoster.
Series [7] relates to Epstein-Barr virus (EBV).
For series [8] the following is noted: oral.
Series [9] has as its system herpes simplex types I (HSV-1).
Series [10] has as its system cytomegalovirus (CMV).
The subject of series [11] is varicella-zoster. The settings on record: in vivo.
Series [12] relates to herpes simplex virus (HSV), cytomegalovirus (CMV) and varicella-zoster.
Series [13] has as its system thymidine kinase (TK) expressed by uninfected normal cells.

For `Nc1nc2c(ncn2COCCOP(=O)(O)OP(=O)(O)OP(=O)(O)O)c(=O)[nH]1` [Acyclovir triphosphate], the “effect on viral DNA polymerase” value in series [1] is recorded as “interferes with viral DNA polymerase”. Moreover, in series [2], the “effect on cellular α-DNA polymerase” value is listed as “to a lesser degree”.
As to `Nc1nc2c(ncn2COCCO)c(=O)[nH]1` [acyclovir, 2-amino-1,9-dihydro-9-[(2-hydroxy-ethoxy)methyl]-6H-purin-6-one], the “conversion by viral TK” value in series [3] was “converts acyclovir into acyclovir monophosphate”. For the same molecule, the “inhibition of HSV-2” value in series [4] is “inhibits”. Moreover, the “toxicity in vitro for uninfected normal cells” value in [5] is on record as “much less toxic in vitro for uninfected normal cells”. The “inhibition of varicella zoster” value in [6] is listed as “inhibits”. Also, in series [7], the “inhibition of EBV” value was “inhibits”. Also, in series [8], the “absorption” value was “slowly and erratically absorbed”; the bioavailability is given as 15-30%. Besides, in series [9], the “inhibition of HSV-1” value was “inhibits”. Besides, the “inhibition of CMV” value in [10] is reported as “inhibits”. Besides, the “effect on symptoms of acute varicella-zoster disease” value in [11] was “reduces fever, chronic pain, the progression of rash and accelerates cutaneous healing”. For the same molecule, the “safety and efficacy in treatment of viral disease” value in series [12] (immunocompromised and immunocompetent patients) was “safe and effective”. In addition, the “suppression of reactivated or newly acquired viral diseases” value in series [12] (oral administration, genital herpes simplex, shingles, acute varicella-zoster) is listed as “suppression of reactivated or newly acquired viral diseases”. In series [12] (pre- and postoperative prophylaxis, long-term (>6 months) oral), the “morbidity and mortality from viral disease” value is recorded as “reduced”. Besides, the “substrate for TK of uninfected normal cells” value in series [13] was “not a substrate”.
